Measurements published in patent US11530244B2, “Cyclic polypeptides for PCSK9 inhibition” (priority 2018, dated 2022).
Starred links: 1 amine or outer side, 2 acyl side, 3 side chain; linkers in the order of their positions; H or OH if unused. Positions of bridges follow the written chain, without caps; N, C: chain ends. Non-standard residues stand in square brackets, D forms with d. Residues, ends and D or L forms follow the SMILES beside them. Groups on a side chain read outwards from the residue. *: point of attachment. X50 = C[C@@H](N[*:1])C(=O)C[C@@H](Cc1c[nH]c2ccc(F)cc12)C(=O)[*:2]; X25 = O=C([C@H](Cc1cccc(OCC=[*:3])c1)N[*:1])[*:2]; X26 = O=C([C@@H]1[C@@H](OCC=[*:3])CCN1[*:1])[*:2]; NHCH2C6H4(p)CH2CH2NH = c1cc(CN[*:1])ccc1CCN[*:2]; Trp(5-F) = N[C@@H](Cc1c[nH]c2ccc(F)cc12)C(=O)O; Phe(4-CH2NH2) = NCc1ccc(C[C@H](N)C(=O)O)cc1; Pro(cis-4-F) = O=C(O)[C@@H]1C[C@H](F)CN1; X4 = O=C(CCSCc1cccc(CSCCN[*:1])c1)[*:2]; γGlu = O=C(O)[C@H](CCC(=O)[*:2])N[*:1]; mXylylene = c1cc(C[*:1])cc(C[*:2])c1; AEF = NCCOc1ccc(C[C@H](N)C(=O)O)cc1; Palmitoyl = CCCCCCCCCCCCCCCC(=O)*; X6 = O=C(Cc1ccc(CN[*:2])cc1)[*:1]; X44 = O=C(C[*:2])NCCCC(=O)[*:1]; Aad = N[C@@H](CCCC(=O)O)C(=O)O; aThr = C[C@H](O)[C@H](N)C(=O)O; Suc = O=C(CCC(=O)[*:2])[*:1]; αMeP = C[C@@]1(C(=O)O)CCCN1; 3Amb = NCc1cccc(C(=O)O)c1; Orn = NCCC[C@H](N)C(=O)O; AEEA = NCCOCCOCC(=O)O; X2 = O=C(C[*:2])[*:1]; X37 = O=C(CC1CC1)*; Mpa = O=C(O)CCS

Legend:
Assay type in all cases: binding
PCSK9 [1] = target: T1, PCSK9 (Homo sapiens (Human), UniProt Q8NBP7); assay: PCSK9 Alexa FRET Standard assay (displacement of AlexaFluor647 tagged cyclic peptide Reagent A); settings: PCSK9 Alexa FRET Standard assay, 0.5 nM PCSK9, 20 nM AF cyclic peptide Reagent A; read-out: IC50
Summary of the method: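 TR-FRET displacement: 0.5 nM biotinylated PCSK9 with 1.25 nM Strep-Eu and 20 nM AlexaFluor-tagged cyclic peptide (final) in 50 mM HEPES pH 7.4, 0.15 M NaCl, 5 mM CaCl2, 0.01% BSA, 0.01% P20, ≥2 h at room temperature. IC50 from sigmoidal fit, converted to Ki via peptide KD; falling Eu counts flagged false positives.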

PCSK9 [2] = target: T1, PCSK9; assay: PCSK9 Alexa FRET Plus assay (displacement of AlexaFluor647 tagged cyclic peptide Reagent B); settings: 0.5 nM PCSK9, 960 nM AF cyclic peptide Reagent B
Protocol: A solution containing 1 nM biotinylated PCSK9+2.5 nM Lance Streptavidin Europium (Strep-Eu) was made in 50 mM HEPES pH 7.4, 0.15 M NaCl, 5 mM CaCl2), 0.01% BSA, and 0.01% Surfactant P20. A separate solution containing 1920 nM of the AlexaFluor tagged cyclic peptide was made in the same buffer system. An Echo was used to transfer 0.075 ul of compound plus 0.675 ul of DMSO to each well of an assay plate followed by the addition of 15 ul of PCSK9+Stept-Eu and 15 ul of AF peptide. The final assay volume was 30.750 ul containing 0.5 nM PCSK9, 1.25 nM Strep-Eu, and 960 nM AF cyclic peptide. The reaction was incubated at room temperature for at least two hours prior to fluorescence measurements using an Envision Multilabel Reader. IC50 values were determined by fitting data to a sigmoidal dose-response curve using nonlinear regression. Ki was then calculated from the IC50 and the KD of AF cyclic peptide. Counts (B-counts) of the europium-labeled PCSK9 were followed to observe if compounds were adversely affecting PCSK9. A fall off of the B-counts likely indicated a false positive of inhibition. Data from this procedure was reported as “P=‘numerical value’ (nanomolar)”

[3] = target: human PCSK9 / human LDLR EGFa domain interaction (Homo sapiens (Human), UniProt Q8NBP7); assay: TR-FRET assay of inhibition of the PCSK9-LDLR protein-protein interaction; settings: TR-FRET, 20 nM human PCSK9, 20 nM human LDLR EGFa domain, 2 hours room temperature; read-out: IC50
Summary of the method: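 Half-maximal inhibitory concentrations came from 4-parameter fits of dose-response data. Proteins: biotinylated PCSK9, His-tagged LDLR EGFa, 20 nM each; labels 5 nM; 2 h, room temperature; buffer 50 mM HEPES, 150 mM NaCl, 5 mM CaCl2.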

[4] = Alexa FRET Plus, read-out: IC50

human PCSK9 / human LDLR EGFa domain interaction, sequence (Q8NBP7 153-692): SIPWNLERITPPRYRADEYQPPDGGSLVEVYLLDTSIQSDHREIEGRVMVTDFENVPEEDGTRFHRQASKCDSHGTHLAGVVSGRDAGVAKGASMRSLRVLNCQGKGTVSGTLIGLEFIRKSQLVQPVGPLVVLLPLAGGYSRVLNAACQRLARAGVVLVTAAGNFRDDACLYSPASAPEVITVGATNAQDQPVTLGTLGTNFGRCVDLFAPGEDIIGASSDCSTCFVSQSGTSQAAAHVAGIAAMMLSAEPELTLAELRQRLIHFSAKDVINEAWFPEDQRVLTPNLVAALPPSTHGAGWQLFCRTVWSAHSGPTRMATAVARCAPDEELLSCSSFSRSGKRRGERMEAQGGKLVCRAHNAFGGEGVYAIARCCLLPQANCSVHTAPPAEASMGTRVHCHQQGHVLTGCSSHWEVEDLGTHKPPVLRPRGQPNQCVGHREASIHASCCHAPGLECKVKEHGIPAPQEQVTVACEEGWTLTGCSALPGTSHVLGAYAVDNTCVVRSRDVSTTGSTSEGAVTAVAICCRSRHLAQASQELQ
human PCSK9 / human LDLR EGFa domain interaction, sequence (Q8NBP7 31-152 partner): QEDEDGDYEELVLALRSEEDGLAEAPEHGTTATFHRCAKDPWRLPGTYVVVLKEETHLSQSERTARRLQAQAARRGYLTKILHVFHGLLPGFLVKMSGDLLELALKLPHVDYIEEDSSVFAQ
T1 sequence (Q8NBP7 153-692): as the sequence (Q8NBP7 153-692) above

Structure (SMILES)	IC50 (PCSK9 [1]) [nM]	IC50 (PCSK9 [2]; [4]) [nM]	IC50 (PCSK9 [2]; IC50, Alexa FRET Plus) [nM]	IC50 [3] [nM]
C[C@H]1NC(=O)[C@H](CCCCN)NC(=O)CCSCc2cccc(c2)CSC[C@@H](C(N)=O)NC(=O)[C@]2(C)CCCN2C(=O)[C@H](Cc2ccc(O)cc2)NC(=O)c2cccc(c2)CNC(=O)[C@H](Cc2c[nH]c3ccc(F)cc23)NC(=O)[C@H](Cc2c[nH]c3ccc(F)cc23)NC1=O [Compound 089] ([Mpa]K[dA][Trp(5-F)][Trp(5-F)][3Amb]Y[αMeP]C-NH2; linker 1-9 via mXylylene)	0.11 to 100	0.1 to 100	–	–
COc1ccc(C[C@@H]2NC(=O)[C@H]([C@@H](C)O)NC(=O)[C@@H]3C[C@H](F)CN3C(=O)[C@H](Cc3c[nH]c4ccc(F)cc34)NC(=O)[C@H](Cc3c[nH]c4ccc(F)cc34)NC(=O)[C@@H](C)NC(=O)[C@H](CCCCN)NC(=O)[C@@H](NC(C)=O)CCCNC(=O)COc3ccc(cc3)C[C@@H](C(N)=O)NC(=O)[C@]3(C)CCCN3C2=O)cc1 [Compound 091] (Ac-[Orn]K[dA][Trp(5-F)][Trp(5-F)][Pro(cis-4-F)]TY(Me)[αMeP]Y-NH2; linker 1-10 via X2)	0.11 to 100	100 to 500	–	–
COc1ccc(C[C@@H]2NC(=O)[C@H]([C@@H](C)O)NC(=O)[C@@H]3C[C@H](F)CN3C(=O)[C@H](Cc3c[nH]c4ccc(F)cc34)NC(=O)[C@H](Cc3c[nH]c4ccc(F)cc34)NC(=O)[C@@H](C)NC(=O)[C@H](CCCCN)NC(=O)CCCNC(=O)COc3ccc(cc3)C[C@@H](C(N)=O)NC(=O)[C@]3(C)CCCN3C2=O)cc1 [Compound 092] (K[dA][Trp(5-F)][Trp(5-F)][Pro(cis-4-F)]TY(Me)[αMeP]Y-NH2; linker N-9 via X44)	0.11 to 100	0.1 to 100	–	–
COc1ccc(C[C@@H]2NC(=O)[C@H]([C@@H](C)O)NC(=O)[C@@H]3CC[C@H](F)N3C(=O)[C@H](Cc3c[nH]c4ccc(F)cc34)NC(=O)[C@H](Cc3c[nH]c4ccc(F)cc34)NC(=O)[C@@H](C)NC(=O)c3ccc(cc3)-c3ccc(cc3)CNCc3ccc(cc3)C[C@@H](C(N)=O)NC(=O)[C@]3(C)CCCN3C2=O)cc1 [Compound 093]	1000 to 12100	500 to 5000	–	–
COc1ccc(C[C@@H]2NC(=O)[C@H]([C@@H](C)O)NC(=O)[C@@H]3C[C@H](F)CN3C(=O)[C@H](Cc3c[nH]c4ccc(F)cc34)NC(=O)[C@H](Cc3c[nH]c4ccc(F)cc34)NC(=O)[C@@H](C)NC(=O)[C@H](CCCCN)NC(=O)[C@@H](NC(C)=O)CC(=O)NCc3ccc(cc3)CCNC(=O)[C@]3(C)CCCN3C2=O)cc1 [Compound 095] (Ac-DK[dA][Trp(5-F)][Trp(5-F)][Pro(cis-4-F)]TY(Me)[αMeP]; linker 1-C via NHCH2C6H4(p)CH2CH2NH)	100 to 1000	500 to 5000	–	–
COc1ccc(C[C@@H]2NC(=O)[C@H]([C@@H](C)O)NC(=O)[C@@H]3C[C@H](F)CN3C(=O)[C@H](Cc3c[nH]c4ccc(F)cc34)NC(=O)[C@H](Cc3c[nH]c4ccc(F)cc34)NC(=O)[C@@H](C)NC(=O)[C@H](CCCCN)NC(=O)CCC(=O)NCc3ccc(cc3)C[C@@H](C(N)=O)NC(=O)[C@]3(C)CCCN3C2=O)cc1 [Compound 097] (K[dA][Trp(5-F)][Trp(5-F)][Pro(cis-4-F)]TY(Me)[αMeP][Phe(4-CH2NH2)]-NH2; linker N-9 via Suc)	0.11 to 100	500 to 5000	–	–
CCCCCCCCCCCCCCCC(=O)N[C@@H](CCC(=O)NCCOCCOCC(=O)NCCOCCOCC(=O)NCCCC[C@@H]1NC(=O)[C@H](Cc2c[nH]c3ccc(F)cc23)NC(=O)[C@H](Cc2c[nH]c3ccc(F)cc23)CC(=O)[C@@H](C)NC(=O)[C@H](CCCCN)NC(=O)CCSCc2cccc(c2)CSC[C@@H](C(N)=O)NC(=O)[C@]2(C)CCCN2C(=O)[C@H](Cc2ccc(O)cc2)NC(=O)[C@H]([C@@H](C)O)NC1=O)C(=O)O [Compound 101] ([Mpa]K[X50][Trp(5-F)]K([AEEA-AEEA-γGlu-Palmitoyl])TY[αMeP]C-NH2; linker 1-9 via mXylylene)	0.11 to 100	100 to 500	–	–
COc1ccc(C[C@@H]2NC(=O)[C@H]([C@@H](C)O)NC(=O)[C@@H]3C[C@H](F)CN3C(=O)[C@H](Cc3c[nH]c4ccc(F)cc34)NC(=O)[C@H](Cc3c[nH]c4ccc(F)cc34)NC(=O)[C@@H](C)NC(=O)CNC(=O)[C@@H](NC(C)=O)CCNCc3ccc(cc3)C[C@@H](C(N)=O)NC(=O)[C@]3(C)CCCN3C2=O)cc1 [Compound 102]	0.11 to 100	–	500 to 5000	–
COc1ccc(C[C@@H]2NC(=O)[C@H]([C@H](C)O)NC(=O)[C@H]3CCCN3C(=O)[C@H](Cc3c[nH]c4ccc(F)cc34)NC(=O)[C@H](Cc3c[nH]c4ccc(F)cc34)NC(=O)[C@@H](C)NC(=O)[C@H](CCCCN)NC(=O)CCSCc3cccc(c3)CSCCNC(=O)[C@]3(C)CCCN3C2=O)cc1 [Compound 103] (cyclo(K[dA][Trp(5-F)][Trp(5-F)][dP][aThr]Y(Me)[αMeP][X4]))	0.11 to 100	500 to 5000	–	–
COc1ccc(C[C@@H]2NC(=O)[C@H]([C@@H](C)O)NC(=O)[C@@H]3C[C@H](F)CN3C(=O)[C@H](Cc3c[nH]c4ccc(F)cc34)NC(=O)[C@H](Cc3c[nH]c4ccc(F)cc34)NC(=O)[C@@H](C)NC(=O)[C@H](CCCCN)NC(=O)[C@@H](NC(=O)CC3CC3)CC(=O)NCCOc3ccc(cc3)C[C@@H](C(N)=O)NC(=O)[C@]3(C)CCCN3C2=O)cc1 [Compound 108] (X37-DK[dA][Trp(5-F)][Trp(5-F)][Pro(cis-4-F)]TY(Me)[αMeP][AEF]-NH2; lactam 1-10)	0.11 to 100	500 to 5000	–	–
COc1ccc(C[C@@H]2NC(=O)[C@@H]3CC/C=C\CO[C@H]4C[C@@H](C(=O)N3)N(C4)C(=O)[C@H](Cc3c[nH]c4ccc(F)cc34)NC(=O)[C@H](Cc3c[nH]c4ccc(F)cc34)NC(=O)[C@@H](C)NC(=O)[C@H](C)NC(=O)[C@@H](NC(C)=O)CC(=O)NCc3ccc(cc3)C[C@@H](C(=O)O)NC(=O)[C@]3(C)CCCN3C2=O)cc1 [Compound 514]	100 to 1000	–	–	100 to 1000
COc1ccc(C[C@@H]2NC(=O)[C@H](C)NC(=O)[C@@H]3CCCCNc4cc(ccn4)C[C@H](NC(=O)[C@@H](C)NC(=O)[C@H](C)NC(=O)CCSCc4cccc(c4)CSC[C@@H](C(N)=O)NC(=O)[C@]4(C)CCCN4C2=O)C(=O)N[C@@H](Cc2c[nH]c4ccc(F)cc24)C(=O)N3)cc1 [Compound 515]	0.11 to 100	–	–	0.1 to 100
COc1ccc(C[C@@H]2NC(=O)[C@H]([C@@H](C)O)NC(=O)[C@@H]3[C@@H]4CCN3C(=O)[C@H](Cc3c[nH]c5ccc(F)cc35)NC(=O)[C@H](Cc3cccc(c3)OC/C=C/CO4)NC(=O)[C@@H](C)NC(=O)[C@H](C)NC(=O)CCSCc3cccc(c3)CSCCNC(=O)[C@]3(C)CCCN3C2=O)cc1 [Compound 516] (cyclo(A[dA][X25][Trp(5-F)][X26]TY(Me)[αMeP][X4]); staple (E) 3-5)	0.11 to 100	–	–	0.1 to 100
COc1ccc(C[C@@H]2NC(=O)[C@@H]3CCCC(=O)N[C@H]4C[C@@H](C(=O)N3)N(C4)C(=O)[C@H](Cc3c[nH]c4ccc(F)cc34)NC(=O)[C@H](Cc3c[nH]c4ccc(F)cc34)NC(=O)[C@@H](C)NC(=O)[C@H](C)NCCSCc3ccc(cc3)CSCCNC(=O)[C@]3(C)CCCN3C2=O)cc1 [Compound 519]	1000 to 12100	–	–	1000 to 12100
COc1ccc(C[C@@H]2NC(=O)[C@@H]3CCCCC(=O)N[C@H]4C[C@@H](C(=O)N3)N(C4)C(=O)[C@H](Cc3c[nH]c4ccc(F)cc34)NC(=O)[C@H](Cc3c[nH]c4ccc(F)cc34)NC(=O)[C@@H](C)NC(=O)[C@H](CCCN)NC(=O)CCSCc3cccc(c3)CCSCNC(=O)[C@]3(C)CCCN3C2=O)cc1 [Compound 521]	0.11 to 100	–	–	0.1 to 100
COc1ccc(C[C@@H]2NC(=O)[C@H](Cc3cnc[nH]3)NC(=O)[C@H](CC(=O)O)NC(=O)[C@H](Cc3c[nH]c4ccc(F)cc34)NC(=O)[C@H](Cc3c[nH]c4ccc(F)cc34)NC(=O)[C@@H](C)NC(=O)[C@H](NC(C)=O)CCCCNC(=O)Cc3ccc(cc3)CNC(=O)CCC[C@@H](C(N)=O)NC(=O)[C@]3(C)CCCN3C2=O)cc1 [Compound 523] (Ac-[dK][dA][Trp(5-F)][Trp(5-F)]DHY(Me)[αMeP][Aad]-NH2; linker 1-9 via X6)	100 to 1000	–	–	0.1 to 100
